Blank lines part the entries; values can stand above or below the compound they belong to.
How the values were obtained:
[1] = target: T1, Protein kinase C epsilon type (Homo sapiens) (UniProt Q02156); assay: Selectivity interaction (Kinase panel (Z-LYTE Assay)) EUB0001632a PRKCE; settings: at 10 µM
T1 sequence (whole entry): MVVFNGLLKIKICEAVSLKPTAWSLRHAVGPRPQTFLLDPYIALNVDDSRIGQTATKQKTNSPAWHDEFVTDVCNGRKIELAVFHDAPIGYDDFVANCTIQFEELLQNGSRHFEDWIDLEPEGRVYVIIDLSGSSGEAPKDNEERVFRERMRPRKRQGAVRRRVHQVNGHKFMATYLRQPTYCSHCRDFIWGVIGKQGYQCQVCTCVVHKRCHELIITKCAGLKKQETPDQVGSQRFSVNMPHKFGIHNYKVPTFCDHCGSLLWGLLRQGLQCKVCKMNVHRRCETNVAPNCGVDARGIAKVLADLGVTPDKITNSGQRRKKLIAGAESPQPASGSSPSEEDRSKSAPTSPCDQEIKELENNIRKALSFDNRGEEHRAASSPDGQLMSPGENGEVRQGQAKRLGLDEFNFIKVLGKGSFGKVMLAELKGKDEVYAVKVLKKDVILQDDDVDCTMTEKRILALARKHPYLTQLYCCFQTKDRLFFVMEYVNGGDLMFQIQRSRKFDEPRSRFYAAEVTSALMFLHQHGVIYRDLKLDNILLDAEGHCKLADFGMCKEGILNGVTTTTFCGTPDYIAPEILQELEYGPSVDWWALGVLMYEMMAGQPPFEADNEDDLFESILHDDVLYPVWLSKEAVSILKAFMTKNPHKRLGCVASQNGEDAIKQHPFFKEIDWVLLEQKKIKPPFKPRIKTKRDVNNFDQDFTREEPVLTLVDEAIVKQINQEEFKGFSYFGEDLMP

[2] = target: Protein-tyrosine kinase 6 (Homo sapiens, UniProt Q13882); assay: Selectivity interaction (SelectScreen profiling (Invitrogen)) EUB0000607a PTK6; settings: at 2 µM
Sequence of Protein-tyrosine kinase 6 (Q13882 whole entry, looked up, the tested form may be a part): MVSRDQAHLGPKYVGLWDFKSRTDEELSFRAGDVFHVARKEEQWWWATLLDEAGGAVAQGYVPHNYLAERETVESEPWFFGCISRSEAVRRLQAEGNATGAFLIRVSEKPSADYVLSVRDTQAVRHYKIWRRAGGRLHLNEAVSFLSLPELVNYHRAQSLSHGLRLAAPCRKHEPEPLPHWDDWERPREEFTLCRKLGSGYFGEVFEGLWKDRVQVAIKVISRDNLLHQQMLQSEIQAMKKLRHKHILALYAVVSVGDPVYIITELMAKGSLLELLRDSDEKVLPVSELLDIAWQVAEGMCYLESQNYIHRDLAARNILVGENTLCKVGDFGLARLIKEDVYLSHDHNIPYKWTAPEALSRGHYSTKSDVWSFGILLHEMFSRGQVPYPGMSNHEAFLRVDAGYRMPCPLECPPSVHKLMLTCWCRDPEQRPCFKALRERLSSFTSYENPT

[3] = target: T2, Ankyrin repeat and protein kinase domain-containing protein 1 (Homo sapiens) (UniProt Q8NFD2); settings: at 10 µM
T2 sequence (whole entry): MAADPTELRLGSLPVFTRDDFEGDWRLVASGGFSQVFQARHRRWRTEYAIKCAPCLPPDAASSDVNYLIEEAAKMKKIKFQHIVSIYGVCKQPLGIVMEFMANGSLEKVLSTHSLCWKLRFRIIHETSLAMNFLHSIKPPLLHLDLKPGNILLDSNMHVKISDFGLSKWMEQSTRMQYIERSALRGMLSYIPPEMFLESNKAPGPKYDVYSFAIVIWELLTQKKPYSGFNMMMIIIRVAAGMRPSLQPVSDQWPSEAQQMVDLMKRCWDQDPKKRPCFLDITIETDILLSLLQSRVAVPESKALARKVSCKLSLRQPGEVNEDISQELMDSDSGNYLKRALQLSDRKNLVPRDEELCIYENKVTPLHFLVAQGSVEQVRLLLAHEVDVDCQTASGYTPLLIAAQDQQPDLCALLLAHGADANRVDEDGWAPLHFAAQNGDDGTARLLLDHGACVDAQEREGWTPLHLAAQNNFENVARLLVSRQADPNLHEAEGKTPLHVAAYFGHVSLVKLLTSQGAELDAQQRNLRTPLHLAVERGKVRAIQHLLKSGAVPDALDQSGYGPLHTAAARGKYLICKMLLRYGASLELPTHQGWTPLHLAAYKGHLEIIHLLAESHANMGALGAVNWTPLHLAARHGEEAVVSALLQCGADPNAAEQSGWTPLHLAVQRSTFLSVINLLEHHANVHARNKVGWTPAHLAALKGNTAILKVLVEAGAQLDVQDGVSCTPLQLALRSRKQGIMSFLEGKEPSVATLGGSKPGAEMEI

[4] = target: Tyrosine-protein kinase JAK2 (Homo sapiens, UniProt O60674); assay: Selectivity interaction (KinomeScan (DiscoverX)) EUB0001049a JAK2; settings: at 1 µM
Sequence of Tyrosine-protein kinase JAK2 (O60674 whole entry): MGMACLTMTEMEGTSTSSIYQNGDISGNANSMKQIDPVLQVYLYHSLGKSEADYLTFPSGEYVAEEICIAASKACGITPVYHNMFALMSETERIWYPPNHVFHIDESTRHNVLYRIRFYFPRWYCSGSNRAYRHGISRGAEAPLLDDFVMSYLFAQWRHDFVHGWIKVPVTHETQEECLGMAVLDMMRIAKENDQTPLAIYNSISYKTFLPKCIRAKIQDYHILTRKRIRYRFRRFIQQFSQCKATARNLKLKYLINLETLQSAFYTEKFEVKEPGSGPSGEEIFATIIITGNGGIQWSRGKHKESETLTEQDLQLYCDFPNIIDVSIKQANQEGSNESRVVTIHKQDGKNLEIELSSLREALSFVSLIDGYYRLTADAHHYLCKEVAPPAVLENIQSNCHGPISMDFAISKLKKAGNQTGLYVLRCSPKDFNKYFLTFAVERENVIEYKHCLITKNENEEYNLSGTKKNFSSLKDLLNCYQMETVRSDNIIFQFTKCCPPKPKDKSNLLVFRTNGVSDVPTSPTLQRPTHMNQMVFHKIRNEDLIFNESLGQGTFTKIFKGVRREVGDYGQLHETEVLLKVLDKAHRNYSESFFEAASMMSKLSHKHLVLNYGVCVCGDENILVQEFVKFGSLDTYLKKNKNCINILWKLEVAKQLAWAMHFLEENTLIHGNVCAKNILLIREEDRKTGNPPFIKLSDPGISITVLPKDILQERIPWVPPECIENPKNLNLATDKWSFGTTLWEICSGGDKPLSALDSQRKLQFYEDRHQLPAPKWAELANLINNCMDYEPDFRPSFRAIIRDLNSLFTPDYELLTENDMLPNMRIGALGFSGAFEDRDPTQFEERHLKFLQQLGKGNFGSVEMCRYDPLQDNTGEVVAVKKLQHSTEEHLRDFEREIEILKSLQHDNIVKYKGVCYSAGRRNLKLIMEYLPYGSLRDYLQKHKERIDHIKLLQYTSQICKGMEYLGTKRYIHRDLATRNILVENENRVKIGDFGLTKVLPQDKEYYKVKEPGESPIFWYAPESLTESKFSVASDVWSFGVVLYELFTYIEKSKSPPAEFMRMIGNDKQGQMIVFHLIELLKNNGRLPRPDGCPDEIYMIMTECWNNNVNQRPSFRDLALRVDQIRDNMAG

[5] = target: T3, Bone morphogenetic protein receptor type-2 (Homo sapiens) (UniProt Q13873); assay: Selectivity interaction (Kinase panel (DSF assay)) EUB0001558a BMPR2
T3 sequence (whole entry): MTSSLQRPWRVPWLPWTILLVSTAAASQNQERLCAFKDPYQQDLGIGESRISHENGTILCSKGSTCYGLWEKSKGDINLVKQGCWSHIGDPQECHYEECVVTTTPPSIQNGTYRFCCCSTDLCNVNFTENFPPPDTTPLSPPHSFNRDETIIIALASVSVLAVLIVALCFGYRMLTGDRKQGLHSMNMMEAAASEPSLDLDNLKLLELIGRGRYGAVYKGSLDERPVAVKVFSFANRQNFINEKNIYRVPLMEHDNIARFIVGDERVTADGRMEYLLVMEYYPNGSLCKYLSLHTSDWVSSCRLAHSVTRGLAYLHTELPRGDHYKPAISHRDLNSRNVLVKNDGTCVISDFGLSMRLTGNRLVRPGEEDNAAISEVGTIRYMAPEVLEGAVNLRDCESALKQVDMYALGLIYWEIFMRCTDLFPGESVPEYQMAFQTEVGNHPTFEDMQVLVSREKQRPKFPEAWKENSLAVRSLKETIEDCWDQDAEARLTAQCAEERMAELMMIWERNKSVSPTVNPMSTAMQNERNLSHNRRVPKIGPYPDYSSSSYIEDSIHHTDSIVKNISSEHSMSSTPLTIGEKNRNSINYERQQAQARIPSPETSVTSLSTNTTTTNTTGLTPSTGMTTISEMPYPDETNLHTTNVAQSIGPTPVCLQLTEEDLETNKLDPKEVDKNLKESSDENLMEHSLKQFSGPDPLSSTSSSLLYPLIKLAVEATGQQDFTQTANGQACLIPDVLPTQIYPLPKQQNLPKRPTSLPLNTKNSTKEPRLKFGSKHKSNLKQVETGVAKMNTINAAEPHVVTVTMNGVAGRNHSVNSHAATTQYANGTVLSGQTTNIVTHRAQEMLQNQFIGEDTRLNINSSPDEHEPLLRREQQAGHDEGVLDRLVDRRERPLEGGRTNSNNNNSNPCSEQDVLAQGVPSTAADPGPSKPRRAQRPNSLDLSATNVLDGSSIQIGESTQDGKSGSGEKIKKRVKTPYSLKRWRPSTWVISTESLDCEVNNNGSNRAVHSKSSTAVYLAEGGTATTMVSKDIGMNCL

[6] = target: Homeodomain-interacting protein kinase 2 (Homo sapiens, UniProt Q9H2X6); assay: Selectivity interaction (KinomeScan (DiscoverX)) EUB0000045b HIPK2
Sequence of Homeodomain-interacting protein kinase 2 (Q9H2X6 whole entry, looked up): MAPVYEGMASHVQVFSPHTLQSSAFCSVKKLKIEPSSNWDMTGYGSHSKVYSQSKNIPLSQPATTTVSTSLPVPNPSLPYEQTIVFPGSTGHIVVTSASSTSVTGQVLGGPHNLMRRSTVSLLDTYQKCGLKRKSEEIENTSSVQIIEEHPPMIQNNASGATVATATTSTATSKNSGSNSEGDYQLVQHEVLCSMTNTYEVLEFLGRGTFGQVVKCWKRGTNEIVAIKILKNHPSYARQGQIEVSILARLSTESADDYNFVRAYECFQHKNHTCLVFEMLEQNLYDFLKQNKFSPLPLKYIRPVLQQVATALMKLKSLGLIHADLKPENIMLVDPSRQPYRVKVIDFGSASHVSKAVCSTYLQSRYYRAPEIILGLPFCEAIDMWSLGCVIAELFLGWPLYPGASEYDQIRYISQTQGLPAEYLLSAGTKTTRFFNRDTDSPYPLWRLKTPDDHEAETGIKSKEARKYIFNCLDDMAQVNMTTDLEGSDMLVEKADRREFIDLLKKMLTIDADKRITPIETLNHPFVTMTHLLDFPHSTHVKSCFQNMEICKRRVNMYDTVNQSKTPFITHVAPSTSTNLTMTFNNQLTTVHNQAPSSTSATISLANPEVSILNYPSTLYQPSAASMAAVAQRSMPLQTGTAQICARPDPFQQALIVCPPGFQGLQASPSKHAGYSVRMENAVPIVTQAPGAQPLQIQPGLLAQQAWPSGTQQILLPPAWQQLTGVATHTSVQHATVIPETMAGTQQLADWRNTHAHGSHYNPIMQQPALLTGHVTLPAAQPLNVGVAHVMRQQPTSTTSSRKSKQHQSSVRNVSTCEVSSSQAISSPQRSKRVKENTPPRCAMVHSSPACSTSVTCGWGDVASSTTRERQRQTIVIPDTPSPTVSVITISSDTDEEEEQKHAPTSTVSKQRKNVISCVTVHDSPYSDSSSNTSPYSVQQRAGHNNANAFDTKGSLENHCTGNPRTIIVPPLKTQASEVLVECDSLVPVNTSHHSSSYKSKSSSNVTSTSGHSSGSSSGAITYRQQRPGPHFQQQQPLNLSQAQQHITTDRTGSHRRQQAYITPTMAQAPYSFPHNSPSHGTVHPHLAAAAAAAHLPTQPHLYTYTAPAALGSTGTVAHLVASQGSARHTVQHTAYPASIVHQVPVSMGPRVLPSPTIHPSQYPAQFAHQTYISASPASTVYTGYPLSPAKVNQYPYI

[7] = target: Muscarinic acetylcholine receptor M4 (Homo sapiens) (UniProt P08173); assay: Selectivity interaction (GPCR panel (PDSP screen)) EUB0001079a CHRM4; settings: at 10 µM
Sequence of Muscarinic acetylcholine receptor M4 (Homo sapiens) (P08173 whole entry): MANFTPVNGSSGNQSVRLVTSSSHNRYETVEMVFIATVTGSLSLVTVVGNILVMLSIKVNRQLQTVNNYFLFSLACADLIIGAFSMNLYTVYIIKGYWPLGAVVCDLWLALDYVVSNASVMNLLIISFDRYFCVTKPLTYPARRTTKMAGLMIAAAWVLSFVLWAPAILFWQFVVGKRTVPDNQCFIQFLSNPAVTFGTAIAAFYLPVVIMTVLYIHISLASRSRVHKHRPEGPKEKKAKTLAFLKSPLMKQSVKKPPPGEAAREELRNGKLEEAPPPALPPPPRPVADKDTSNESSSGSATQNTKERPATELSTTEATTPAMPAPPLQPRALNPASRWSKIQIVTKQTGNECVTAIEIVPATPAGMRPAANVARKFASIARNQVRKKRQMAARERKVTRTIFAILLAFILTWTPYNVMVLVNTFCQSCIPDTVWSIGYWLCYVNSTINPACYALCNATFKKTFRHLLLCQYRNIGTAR

- % of control [1]: -8.31%
Structure (SMILES): Cn1cc(-n2cnc3c(NCc4nc5cc(Cl)c(Cl)cc5[nH]4)nc(N4CCOCC4)nc32)cn1

Structure (SMILES): CNC(=O)Nc1ccc(-c2nc(N3CC4CCC(C3)O4)c3cnn(C4CCC5(CC4)OCCO5)c3n2)cc1
- % of inhibition [2]: 8%

Structure (SMILES): COCC(=O)NC/C=C/c1ccc2ncnc(Nc3ccc(Oc4ccc(C)nc4)c(C)c3)c2c1 [CP-724714]
- % of control [3]: 60%

Structure (SMILES): COc1cc(Nc2nc(C)cc(-c3cnn4nc(OC)ccc34)n2)cc(C(F)(F)F)c1
- % of control [4]: 85%

Structure (SMILES): CC(C)(O)[C@H](F)CN1Cc2cc(NC(=O)c3cnn4cccnc34)c(N3CCOCC3)cc2C1=O
- dTM [5]: 2.1 K

Structure (SMILES): C=CC(=O)Nc1cc(-n2c(=O)ccc3cnc4ccc(-c5ccc(NS(C)(=O)=O)cc5)cc4c32)ccc1C
- % of control ([6]; at 1 µM): 100%
- % of control ([6]; at 10 µM): 100%

Structure (SMILES): Nc1cnc(N2CCc3cc(S(=O)(=O)Nc4c(F)cc(Cl)cc4F)cc(N4CCCC4=O)c32)nc1 [TP-020n]
- % of inhibition [7]: 9.99%

Source: ChEMBL document CHEMBL5465560, “Selectivity Literature for EUbOPEN Chemogenomic Library” (2024)
